Literature values in patent US20040191926A1 (priority 2001, published 2004).
Positions count from the first letter of the chain named. Read-outs that look alike come from different tables or passages of the source. Where no end group is shown, it is not given here. [ ]: non-standard residue; d: D form. F2Pmp = N[C@@H](Cc1ccc(C(F)(F)P(=O)(O)O)cc1)C(=O)O

Experiments:
PTP1B [1] = target: T1, PTP1B (Homo sapiens, UniProt P18031); conditions: as PTP1B substrate (ref. 31); cited from earlier work
T1 sequence (P18031 1-435): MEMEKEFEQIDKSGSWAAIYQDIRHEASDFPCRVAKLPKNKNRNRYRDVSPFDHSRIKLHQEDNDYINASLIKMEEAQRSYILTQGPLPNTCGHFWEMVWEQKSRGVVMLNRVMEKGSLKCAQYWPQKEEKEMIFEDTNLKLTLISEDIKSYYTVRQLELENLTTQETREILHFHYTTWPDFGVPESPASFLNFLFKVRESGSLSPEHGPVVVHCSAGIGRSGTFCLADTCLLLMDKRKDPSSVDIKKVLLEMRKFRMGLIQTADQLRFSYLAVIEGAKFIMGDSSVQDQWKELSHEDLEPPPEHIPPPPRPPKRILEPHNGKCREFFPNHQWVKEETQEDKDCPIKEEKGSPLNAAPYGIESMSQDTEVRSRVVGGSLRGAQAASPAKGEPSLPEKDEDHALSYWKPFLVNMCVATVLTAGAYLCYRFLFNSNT

PTP1B/C215S = target: T2, PTP1B/C215S (Homo sapiens, UniProt P18031, C215S); conditions: isothermal titration calorimetry, pH 7.0 and 25° C.; cited from earlier work
T2 sequence (P18031 1-435 C215S): T1 sequence (P18031 1-435) with C215S

PTP1B [2] = target: T1, PTP1B; conditions: cited from earlier work
PTP1B [3] = target: T1, PTP1B; conditions: isothermal titration calorimetry, ionic strength of 0.15 M (ref. 33); cited from earlier work

## O=P(O)(O)Oc1ccc(Cc2ccc(OP(=O)(O)O)cc2)cc1
PTP1B [1]
  Km: 16 µM
  kcat: 6.9 s⁻¹

## Ac-DADEpYL-NH2 [pTyr-containing hexapeptide PTP1B substrate]
PTP1B/C215S
  Kd: 800 ± 100 nM

## DADE[F2Pmp]L-NH2
PTP1B [2]
  Ki: 200 nM
  potency relative to the same peptide containing phosphonomethyl phenylalanine (Pmp): over 1000 times
PTP1B [2]; enzyme inhibition, ionic strength of 0.15 M (ref. 33)
  Ki: 250 nM
PTP1B [2]; low ionic strength: pH 6.3, 50 mM Bis-Tris, 2 mM EDTA, 5 mM DTT buffer (ref. 38)
  IC50: 30 nM
PTP1B [2]; low ionic strength: pH 7.3 in 50 mM Hepes, 5 mM DTT and 10 mg/mL BSA buffer (ref. 37)
  Ki: 26 nM
PTP1B [3]
  Kd: 240 nM
